According to US5801165A, “Antiinflammatory, immunosuppressive and antialleric 16, 17-alkylidioxy-steroids” (Rhone-Poulenc Rorer Limited, priority 1992, dated 1998):
Where two headings read alike, the source gives them in different places.

Target: T1, Rat thymus glucocorticoid receptor (Rattus norvegicus, UniProt P06536)
T1 construct: The supernatant cytosol is used as the source of receptor; from tissue; host or cells: thymus of male adrenalectomised rats, 100,000 g supernatant cytosol
T1 sequence (P06536 1-795): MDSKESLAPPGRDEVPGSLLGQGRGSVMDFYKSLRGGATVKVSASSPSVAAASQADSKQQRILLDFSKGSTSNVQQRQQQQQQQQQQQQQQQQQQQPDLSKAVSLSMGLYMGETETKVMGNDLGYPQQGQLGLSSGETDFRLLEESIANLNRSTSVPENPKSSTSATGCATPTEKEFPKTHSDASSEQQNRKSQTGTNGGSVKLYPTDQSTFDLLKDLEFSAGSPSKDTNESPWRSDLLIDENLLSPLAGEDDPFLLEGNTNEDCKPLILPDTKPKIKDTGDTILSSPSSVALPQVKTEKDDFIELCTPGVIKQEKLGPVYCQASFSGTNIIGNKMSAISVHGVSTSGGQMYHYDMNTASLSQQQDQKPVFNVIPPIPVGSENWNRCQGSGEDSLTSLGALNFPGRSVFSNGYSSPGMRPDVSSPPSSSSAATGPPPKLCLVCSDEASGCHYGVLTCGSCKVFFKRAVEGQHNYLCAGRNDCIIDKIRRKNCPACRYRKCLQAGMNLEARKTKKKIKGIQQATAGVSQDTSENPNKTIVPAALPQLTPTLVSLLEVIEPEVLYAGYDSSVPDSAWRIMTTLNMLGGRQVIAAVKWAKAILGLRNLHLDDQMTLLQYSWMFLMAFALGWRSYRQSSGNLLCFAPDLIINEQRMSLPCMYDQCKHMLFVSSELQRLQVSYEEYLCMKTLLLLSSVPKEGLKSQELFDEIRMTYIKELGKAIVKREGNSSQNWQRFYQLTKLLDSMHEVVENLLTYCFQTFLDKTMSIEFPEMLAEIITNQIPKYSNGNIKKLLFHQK
Assay: Steroid binding to the rat thymus glucocorticoid receptor ([3H] dexamethasone displacement)
Source text: GLUCOCORTICOID AGONIST ACTIVITY
STEROID BINDING TO THE RAT THYMUS GLUCOCORTICOID RECEPTOR
Thymi of male adrenalectomised rats are removed and homogenised in 3-(N-morpholino)propanesulphonic acid dithiothreitol buffer, and centrifuged at 100,000 g. The supernatant cytosol is used as the source of receptor. […] Bound [^3 H] dexamethasone is separated from free dexamethasone by a dextran coated charcoal technique and is quantified by liquid scintillation counting.

[1] = 4 nM [3H] dexamethasone, 24 hours at 4° C., rat thymus cytosol, read-out: IC50 (concentration reducing [3H] dexamethasone binding by 50%)
[2] = read-out: IC50 (concentration reducing [3H] dexamethasone binding by 50%), 4 nM [3H] dexamethasone, 24 hours at 4° C., rat thymus cytosol

Structure (SMILES)	IC50 [1]	also measured
CC1(C)O[C@@H]2C[C@H]3[C@@H]4C[C@H](F)C5=CC(=O)C=C[C@]5(C)[C@@]4(F)[C@@H](O)C[C@]3(C)[C@]2(SCF)O1 [6α,9α-Difluoro-11β-hydroxy-16α,17α-isopropylidenedioxy-17β-(fluoromethylthio)androsta-1,4-dien-3-one]	4.1 nM	–
CS[C@@]12OC(C)(C)O[C@@H]1C[C@H]1[C@@H]3C[C@H](F)C4=CC(=O)C=C[C@]4(C)[C@@]3(F)[C@@H](O)C[C@@]12C [6α,9α-Difluoro-11β-hydroxy-16α,17α-isopropylidenedioxy-17β-(methylthio)androsta-1,4-dien-3-one]	3.2 nM	–
CC1(C)O[C@@H]2C[C@H]3[C@@H]4CCC5=CC(=O)C=C[C@]5(C)[C@@]4(F)[C@@H](O)C[C@]3(C)[C@]2(S(C)(=O)=O)O1 [9α-Fluoro-11β-hydroxy-16α,17α-isopropylidene-dioxy-17β-methylsulphonylandrosta-1,4-dien-3-one]	3.8 nM	–
CC1(C)O[C@@H]2C[C@H]3[C@@H]4CCC5=CC(=O)C=C[C@]5(C)[C@@]4(F)[C@@H](O)C[C@]3(C)[C@]2(Sc2ccccn2)O1 [9α-Fluoro-11β-hydroxy-16α,17α-isopropylidenedioxy-17β-(2-pyridylthio)androsta-1,4-dien-3-one]	27 nM	–
CS[C@@]12OC(C)(C)O[C@@H]1C[C@H]1[C@@H]3CCC4=CC(=O)C=C[C@]4(C)[C@@]3(F)[C@@H](O)C[C@@]12C [9α-Fluoro-11β-hydroxy-16α,17α-isopropylidenedioxy-17β-(methylthio)androsta-1,4-dien-3-one]	–	IC50: 1.6 nM
CCC[C@@H]1O[C@@H]2C[C@H]3[C@@H]4C[C@H](F)C5=CC(=O)CC[C@]5(C)[C@@]4(F)[C@@H](O)C[C@]3(C)[C@]2(SCF)O1 [(20R)-6α,9α-Difluoro-11β-hydroxy-16α,17α-butylidenedioxy-17β-fluoromethylthioandrost-4-en-3-one]	3 nM	–
CCC[C@@H]1O[C@@H]2C[C@H]3[C@@H]4CCC5=CC(=O)C=C[C@]5(C)[C@@]4(F)[C@@H](O)C[C@]3(C)[C@]2([S+](C)[O-])O1 (stereo partly drawn) [(20R)-9α-Fluoro-11β-hydroxy-16α,17α-butylidenedioxy-17β-methylsulphinylandrosta-1,4-dien-3-one]	–	IC50 [2]: 6.6 nM
CCC[C@@H]1O[C@@H]2C[C@H]3[C@@H]4C[C@H](F)C5=CC(=O)C=C[C@]5(C)[C@@]4(F)[C@@H](O)C[C@]3(C)[C@]2(SCF)O1 [(20R)-16α,17α-Butylidenedioxy-6α,9α-difluoro-11β-hydroxy-17β-(fluoromethylthio)androsta-1,4-dien-3-one]	–	IC50: 2.7 nM
CCC[C@@H]1O[C@@H]2C[C@H]3[C@@H]4CCC5=CC(=O)C=C[C@]5(C)[C@@]4(F)[C@@H](O)C[C@]3(C)[C@]2(SCF)O1 [(20R)-16α,17α-Butylidenedioxy-9α-fluoro-11β-hydroxy-17β-(fluoromethylthio)androsta-1,4-dien-3-one]	7.5 nM	–
CCC[C@@H]1O[C@@H]2C[C@H]3[C@@H]4CCC5=CC(=O)C=C[C@]5(C)[C@@]4(F)[C@@H](O)C[C@]3(C)[C@]2(SC)O1 [(20R)-16α,17α-Butylidenedioxy-9α-fluoro-11β-hydroxy-17β-(methylthio)androsta-1,4-dien-3-one]	1.7 nM	–
C/C=C/[C@@H]1O[C@@H]2C[C@H]3[C@@H]4CCC5=CC(=O)C=C[C@]5(C)[C@@]4(F)[C@@H](O)C[C@]3(C)[C@]2(SC)O1 [(20R)-16α,17α-[(E)-2-Butenylidenedioxy]-9α-fluoro-11β-hydroxy-17β-(methylthio)androsta-1,4-dien-3-one]	2.6 nM	–
CCC[C@@H]1O[C@@H]2C[C@H]3[C@@H]4C[C@H](F)C5=CC(=O)C=C[C@]5(C)[C@@]4(F)[C@@H](O)C[C@]3(C)[C@]2(SC)O1 [(20R)-16α,17α-butylidenedioxy-6α,9α-difluoro-11β-hydroxy-17β-(methylthio)-androsta-1,4-dien-3-one]	–	IC50: 3.7 nM
CCC[C@@H]1O[C@@H]2C[C@H]3[C@@H]4C[C@H](F)C5CC(=O)CC[C@]5(C)[C@@]4(F)[C@@H](O)C[C@]3(C)[C@]2(SC)O1 (stereo partly drawn) [(20R)-16α,17α-butylidenedioxy-6α,9α-difluoro-11β-hydroxy-17β-(methylthio)androstan-3-one]	2.6 nM	–
CCC[C@@H]1O[C@@H]2C[C@H]3[C@@H]4CC(=O)C5=CC(=O)C=C[C@]5(C)[C@@]4(F)[C@@H](O)C[C@]3(C)[C@]2(SC)O1 [(20R)-16α,17α-butylidenedioxy-9α-fluoro-11β-hydroxy-17β-(methylthio)androsta-1,4-diene-3,6-dione]	2.4 nM	–
CCCC1O[C@@H]2C[C@H]3[C@@H]4CCC5=CC(=O)C=C[C@]5(C)[C@@]4(F)[C@@H](O)C[C@]3(C)[C@]2(Sc2ccccn2)O1 (stereo partly drawn) [(20R,S)-16α,17α-Butylidenedioxy-9α-fluoro-11β-hydroxy-17β-(2-pyridylthio)androsta-1,4-dien-3-one]	–	IC50: 11.3 nM
CCCC1O[C@@H]2C[C@H]3[C@@H]4CCC5=CC(=O)C=C[C@]5(C)[C@@]4(F)[C@@H](O)C[C@]3(C)[C@]2(SC(C)C)O1 (stereo partly drawn) [(20R,S)-16α,17α-Butylidenedioxy-9α-fluoro-11β-hydroxy-17β-(isopropylthio)androsta-1,4-dien-3-one]	5.5 nM	–
CCCC1O[C@@H]2C[C@H]3[C@@H]4CCC5=CC(=O)C=C[C@]5(C)[C@@]4(F)[C@@H](O)C[C@]3(C)[C@]2(SCC)O1 (stereo partly drawn) [(20R,S)-16α,17α-Butylidenedioxy-17β-ethylthio-9α-fluoro-11β-hydroxyandrosta-1,4-dien-3-one]	4.1 nM	–
CCC[C@H]1O[C@@H]2C[C@H]3[C@@H]4C[C@H](F)C5=CC(=O)C=C[C@]5(C)[C@@]4(F)[C@@H](O)C[C@]3(C)[C@]2(SCF)O1 [(20S)-6α,9α-difluoro-11β-hydroxy-16α,17α-butylidene-fluoromethylthioandrosta-1,4-dien-3-one]	–	IC50 [2]: 2.5 nM
CCC[C@H]1O[C@@H]2C[C@H]3[C@@H]4C[C@H](F)C5=CC(=O)CC[C@]5(C)[C@@]4(F)[C@@H](O)C[C@]3(C)[C@]2(SC)O1 [(20S)-16α,17α-Butylidenedioxy-6α,9α-difluoro-11β-hydroxy-17β-(methylthio)androst-4-ene-3-one]	2.9 nM	–
CCCC1O[C@@H]2C[C@H]3[C@@H]4CC(=O)C5=CC(=O)CC[C@]5(C)[C@@]4(F)[C@@H](O)C[C@]3(C)[C@]2(SC)O1 (stereo partly drawn) [(20S)-16α,17α-butylidenedioxy-6α,9α-fluoro-11β-hydroxy-(methylthio)androst-4-en-3,6-dione]	3.4 nM	–
